Experiments:
[1] = biological target: T1, Bgl.bli1 (Bacillus licheniformis, UniProt Q65D83); assay: pNPG hydrolysis; assay type: biochemical; conditions: standard assay, no glucose added
T1 construct: gene BL01920; cloning primers encode start MARQTW and end TEEFRYK
T1 sequence (Q65D83 1-478): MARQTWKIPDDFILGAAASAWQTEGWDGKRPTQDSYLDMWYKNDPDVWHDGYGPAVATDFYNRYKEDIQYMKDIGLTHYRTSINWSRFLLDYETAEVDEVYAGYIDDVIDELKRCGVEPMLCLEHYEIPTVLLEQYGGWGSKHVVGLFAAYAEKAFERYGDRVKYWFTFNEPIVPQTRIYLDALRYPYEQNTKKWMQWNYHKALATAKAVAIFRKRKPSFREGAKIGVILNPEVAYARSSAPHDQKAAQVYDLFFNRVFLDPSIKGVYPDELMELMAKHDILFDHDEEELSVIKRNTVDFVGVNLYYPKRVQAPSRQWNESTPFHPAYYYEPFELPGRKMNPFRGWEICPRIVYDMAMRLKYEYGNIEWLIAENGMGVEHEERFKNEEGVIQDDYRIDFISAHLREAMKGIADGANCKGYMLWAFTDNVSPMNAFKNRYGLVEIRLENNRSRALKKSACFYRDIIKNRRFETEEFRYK

[2] = biological target: T1, Bgl.bli1; assay: pNPG hydrolysis with added glucose; assay type: biochemical; conditions: substrate pNPG, called competitive by the authors
From the text: pNPG hydrolysis with added glucose on Bgl.bli1

| SMILES | pNPG hydrolysis [1] | Relative activity (%) at 10% (w/w) glucose [2] |
| --- | --- | --- |
| O=[N+]([O-])c1ccc(O[C@@H]2O[C@H](CO)[C@@H](O)[C@H](O)[C@H]2O)cc1 [p-nitrophenyl-β-D-glucopyranoside] | Bgl.bli1 activity was determined by measuring the hydrolysis of p-nitrophenyl-β-D-glucopyranoside (pNPG) | – |
| OC[C@H]1OC(O)[C@H](O)[C@@H](O)[C@@H]1O (some centres unmarked) [glucose] | – | 49.26% |
